The source of these data is patent US6632449B2, “Compositions and kits comprising a defined boron compound and methods of their preparation” (The Procter & Gamble Co., priority 2001, dated 2003).

SMILES strings stand for the structures.

The series in a line: physchem. Particulars: saturated aqueous solution of the boron compound.

Description: The pKa of the boron compound utilized herein may be determined as follows. […] Using an auto titrator, titrate the solution according to standard methods. The pKa of the boron compound is the pH at which the inflection point occurs in the resulting titration curve.

As a reminder, the pKa is the pH at which an ionisable group is half protonated. Take `OB(O)O` [boric acid]: the pKa was approximately 9.2.
